4 compounds from patent US5622944A, “Testosterone prodrugs for improved drug delivery” (Affymax Technologies N.V., priority 1995, dated 1997) can be followed below.

Where a name gives a salt, the structure may show the parent alone. Read-outs that look alike come from different tables or passages of the source.

Data set [1] in a line: Water solubility (H2O sol). Particulars: for solubility: H2O sol.
The format of data set [2] is in vitro ADME, mouse. The conditions noted are these: for Enhancement in in vitro electrotransport skin flux compared to testosterone: hairless mouse skin, vs unmodified testosterone, 'nearly 10-fold enhancement or greater'; for Flux, active electrotransport (ET): active cells (ETm), 100 uA/cm^2, 6 h. On the procedure:
In vitro electrotransport of testosterone/chemical modifier complexes across hairless mouse skin was evaluated as described in Example 28. The experiments were conducted using modified Valia-Chien cells having 1.0 ml donor and 2.5 ml receptor cells. Anodic transport was carried out using a silver wire-based salt bridge in the donor compartment and a silver chloride cathode in the receptor. Cathodic transport was effected by reversing the electrode configuration. The cells were connected in series and a constant current and temperature were supplied to each cell.
After a predetermined period of time (6 h), aliquots were removed from the receiver phase for immediate analysis by HPLC to determine cumulative flux.
The electrotransport of testosterone/chemical modifier complexes was achieved using modified Valia-Chien cells (1.0 ml donor and 2.5 ml receptor cells). Full thickness, hairless mouse skin (Charles River Labs, Wilmington, Mass.) was soaked for one hour in phosphate buffered saline (PBS, pH=7.4) before placing between each compartment (dermal side of skin facing toward receptor). One passive (P1:data) and two or more (ETm :data) active cells were used to screen each compound.
A 10 mM (1 ml) aqueous solution of testosterone drug/prodrug was placed in the donor (unstirred) compartment and the receptor (stirred) was filled with 2.5 ml of PBS. In order to check for egress due to e.g. damaged skin, a zero hour sample of receptor ([…]) was taken one half hour after the drug solution was placed in the donor compartment. Replacement fluid of equal sample volume was added to the receptor compartment immediately after samples were taken.
Anodic electrotransport was achieved using a silver wire (immersed in a polyvinylalcohol-based salt bridge to minimize junction potential) in the donor compartment and a AgCl cathode in the receptor. […] The electrotransport cells were connected in series and constant current (100 uA/cm^2, […] for a skin area of 0.64 cm^2) and temperature (32° C.) were supplied to each cell. After six hours of active/passive transport, aliquots (200 ul) of the receptor were sampled and immediately analyzed by HPLC.
A standard plot of peak area and concentration for each compound was constructed using HPLC. The peak areas of the samples were determined and the concentrations calculated using the standard data. Cumulative flux was calculated using Quickbasic and reported in nmol/cm^2 /hr.

A short description of data set [3]: in vitro. It is filed as cell-based, human. Particulars: human, dermal fibroblasts, MTT; for CC50 at 2 h: IC50 2 h (cytotoxicity), 2 h incubation; for CC50 at 16 h: IC50 16 h (cytotoxicity), 16 h incubation. As for the experimental part: (§1) As discussed above, the chemical modifier, when present in the subject in its free or released form, and in appropriately administered amounts, should preferably be non-toxic. Additionally, any further in vivo degradation products of the chemical modifier should be non-toxic, as well. Table 2 provides in vitro relative cytotoxicity data for a number of testosterone/chemical modifier complexes, prepared in accordance with the invention. The cytotoxicity assessment was carried out by examining the viability of human dermal fibroblasts in the presence of a number of testosterone/chemical modifier complexes in accordance with the present invention. Details of the experimental protocol are summarized in Example 27.
(§2) The viability of human dermal fibroblasts in the presence of the 17-hydroxy sterol/chemical modifier compounds was assayed using MTT (3-[4,5-dimethylthiazol-2-yl]-2,5-diphenyltetrazolium bromide) reduction to formazan by mitochondrial enzymes as an indicator of cytotoxicity (Swisher, et al.). Confluent fibroblast cells were incubated for 2 or 16 hours in the presence of increasing concentrations of drug complex. At the end of the incubation period, medium was replaced for 4 hours by medium containing the tetrazolium salt, MTT. Metabolism of MTT to a blue formazan was quantitated by spectrophotometry at 540 nm.

A short description of data set [4]: in vitro. Particulars: human, serum, 37° C. It is filed as in vitro ADME. As for the experimental part:
The hydrolytic activity of the sterol prodrug may be evaluated by studies of the chemical or enzymatic conversion of the prodrug to the unmodified parent compound, as described in Example 26.
Generally, the sterol/chemical modifier complex is dissolved in a minimum amount of a suitable solvent, such as ethanol, and the resulting solution is added to a sample of human serum. Following incubation, aliquots are then removed at various time points and analyzed to determine the extent of hydrolysis. Table I herein lists the representative serum half-lives of a number of testosterone prodrugs according to the present invention.
The rates of conversion are readily determined, for example by spectrophotometric methods or by gas-liquid or high performance liquid chromatography. Half-lives and other kinetic parameters may then be calculated using standard techniques.
Determination of Testosterone Prodrug Hydrolysis in Serum
Stock solutions (6 mM) of the testosterone prodrugs were prepared in ethanol (dissolution was accomplished by vortexing, sonication, or warming at 37° C., as needed). If required for dissolution, one drop of a co-solvent such as dimethylsulfoxide, dimethylformamide or methanol was added. (Acetonitrile is undesirable because it deactivates the serum enzymes).
HPLC separation methods were established for each study by dilution of the above stock solutions (6 μl) in acetonitrile (1 ml) to form 36 μM solutions. Samples (10 μl) were injected onto a Nucleosil 5C8 column (250×4 mm ID) fitted with an additional guard column (11×4 mm ID) and eluted with a mobile phase of approximately 65% HPLC grade water and 35% trifluoroacetic acid in acetonitrile (0.1% TFA in acetonitrile). Exact proportions of the mobile phase eluents were adjusted in each case to give optimum separation and run times.
Freshly defrosted human serum (3 ml, Sigma) was warmed at 37° C. for five minutes and then the testosterone prodrug stock solution (60 μl) was added with vortexing. […] The aliquots were added to 800 μl of 2% zinc sulfate solution in a 1.5 ml disposable microcentrifuge tube, vortexed immediately and centrifuged at 14,000 RPM for 3 minutes. The supernatants (10 μl) were injected onto the HPLC and peak areas used to determine the percent of parent drug formed or percent of prodrug remaining. Serum blanks were prepared similarly by addition of serum to the zinc sulfate solution, followed by centrifugation. Initial (time=0) samples were prepared by adding serum to the zinc sulfate solution, followed by addition of the complex and separation by centrifugation. The time=0 samples, as well as the original stock solutions, were also used to assess the stability of the complex in the absence of enzyme. Half-lives were determined using the following equation : […]
and plotting time (x ordinate) versus the natural logarithm of percent remaining prodrug (y ordinate) to obtain the slope (m) and the y intercept (b).

The nature of data set [5]: Steady state flux across human skin (iontophoretic). Type of data set: in vitro ADME. As for the experimental part:
Another useful factor for in vitro assessment of skin permeability of a target drug or drug complex is steady state flux. Typically, when performing a kinetic analysis of the skin-penetrating ability of a target compound through a membrane, such as skin, such an analysis includes an assessment of the lag time and the steady state flux or permeation rate. The ideal membrane for such determinations is human skin.
Steady state flux across human skin was determined for three distinct testosterone/chemical modifier complexes, as shown in FIG. 5 and in Table 4. In FIG. 5, iontophoretic flux rates over time are plotted for testosterone-17β-stachydrine ester, chloride salt [2.9], (closed circles), testosterone-17β-(L-carnitine ethyl ester) carbonate, iodide salt [1.7] (solid squares), and testosterone-17β-choline carbonate, bromide salt [1.4] (open circles). […] Steady state flux values in FIG. 5 are expressed as testosterone equivalents in units of μg/cm^2 h.
Iontophoretically-induced steady state flux across human skin was determined for three distinct testosterone/chemical modifier complexes, testosterone-17β-stachydrine ester, chloride salt [2.9], testosterone-17β-(L-carnitine ethyl ester) carbonate, iodide salt [1.7], and testosterone-17β-choline carbonate, bromide salt [1.4]. The in vitro skin flux experiments were carried out in a similar fashion to those described above, with the exception that human skin was used as the membrane.
Steady state flux values provide an indication of the total amount of drug (or drug complex) that can penetrate the skin, under a given set of experimental conditions.

The test system of another data set is human dermal fibroblasts. Kind of data set: in vitro. It is filed as cell-based. Particulars: MTT. On the procedure:
as §1, §2

Setting [6] is: murine skin, 10 mM donor, 32° C.

What is called solubility is the concentration that dissolves in the medium under given conditions. What is called half-life is how long it takes for the measured level to halve. `C[C@]12CC[C@H]3[C@@H](CCC4=CC(=O)CC[C@@]43C)[C@@H]1CC[C@@H]2OC(=O)OCC[N+](C)(C)C` [Code 1.4, testosterone-17β-choline carbonate, bromide salt] had a solubility in data set [1] of 4 mg/mL. The “Enhancement in in vitro electrotransport skin flux compared to testosterone” value in data set [2] is on record as at least 10 fold. In addition, the “Flux, active electrotransport (ET)” value in data set [2] (setting [6]) was determined as 20.8 ± 21.0 nmol/cm^2 /hr. Further, the “Flux, passive (P)” value in data set [2] (murine skin, passive cells (P), 10 mM donor, 6 h, 32° C.) is recorded as 4.0 ± 0.8 nmol/cm^2 /hr. In the data set “in vitro [3]”, this compound came in with a CC50 at 2 h of 966 µM and a CC50 at 16 h of 929 µM. Moreover, the Degradation in the data set “Degradation (%/d)” is recorded as 0 %/d. Moreover, the half-life in “in vitro [4]” (HPLC) came to 24 min. In addition, the “Steady State Flux” value in data set [5] (iontophoresis (Table 4)) came out at 68 ± 4 nmole/cm^2 /h.
On to `CCOC(=O)C[C@H](C[N+](C)(C)C)OC(=O)O[C@H]1CC[C@H]2[C@@H]3CCC4=CC(=O)CC[C@]4(C)[C@H]3CC[C@]12C` [Code 4.1, testosterone-17β-(L-carnitine ethyl ester) carbonate, bromide salt], for which the H2O sol in data set [1] came to 21.0 mg/mL. For the same compound, the “Enhancement in in vitro electrotransport skin flux compared to testosterone” value in data set [2] is at least 10 fold. Also, the “Flux, active electrotransport (ET)” value in data set [2] (setting [6]) was 15.7 ± 5.3 nmol/cm^2 /hr. Also, the CC50 worked out at 1400 µM with human dermal fibroblasts (read-out: IC50 2 h (cytotoxicity), 2 h incubation, 120 min) and 560 µM with human dermal fibroblasts (read-out: IC50 16 h (cytotoxicity), 16 h incubation, 960 min). This compound also showed a Degradation in “Degradation (%/d)” of 1 %/d. The compound further gave a half-life in the data set “in vitro [4]” (HPLC) of 240 min.
In data set [1], `CCOC(=O)C[C@H](C[N+](C)(C)C)OC(=O)O[C@H]1CC[C@H]2[C@@H]3CCC4=CC(=O)CC[C@]4(C)[C@H]3CC[C@]12C` [Code 1.7, testosterone-17β-(L-carnitine ethyl ester) carbonate, iodide salt] returned an H2O sol of 5.3 mg/mL. Moreover, the “Flux, active electrotransport (ET)” value in data set [2] (setting [6]) came to 3.6 ± 1.3 nmol/cm^2 /hr. Besides, in the data set “in vitro [3]”, the CC50 at 2 h is 913 µM and the CC50 at 16 h amounted to 849 µM. The compound further yielded a Degradation in “Degradation (%/d)” of 0 %/d. The half-life in “in vitro [4]” (sample of 82% purity) was 252 min. In addition, in data set [5] (iontophoresis (Table 4)), the “Steady State Flux” value is reported as 75 ± 14 nmole/cm^2 /h.
In turn, `C[C@]12CC[C@H]3[C@@H](CCC4=CC(=O)CC[C@@]43C)[C@@H]1CC[C@@H]2OC(=O)[C@@H]1CCC[N+]1(C)C` [Code 2.9, testosterone-17β-stachydrine ester, chloride salt] had a solubility in data set [1] of 22 mg/mL. In the data set “in vitro [3]”, this compound returned a CC50 at 2 h of 2130 µM and a CC50 at 16 h of 750 µM. Also, in the data set “Degradation (%/d)”, the Degradation is on record as 0 %/d. For the same compound, the half-life in the data set “in vitro [4]” (HPLC) was 822 min. Besides, in data set [5] (iontophoresis), the Steady State Flux was found to be 184 nmol/cm^2 /h and the “Steady state flux compared with the other two complexes (1.4, 1.7)” value is on record as “greater than twice that of either of the other two testosterone/chemical modifier complexes”. Moreover, the “Steady State Flux” value in data set [5] (iontophoresis (Table 4)) was determined as 184 ± 30 nmole/cm^2 /h.
